The record followed here is patent US20240415801A1, “Methods and Compositions for Treating Fibroids” (Lundquist Institute for Biomedical Innovation at …, priority 2023, published 2024).

The subject of assay [1] is human fibroid xenograft. Nature of the assay: Human fibroid xenograft mouse model, tumor weight (Example 1). The note with it: 20 mg/kg daily i.p., two months (8 weeks), vs matched vehicle. The class given is in vivo, ovariectomized CB-17 SCID/Beige mice. From the text:
Portions of intramural uterine fibroids (2-5 cm diameter) were obtained from hysterectomies performed at Harbor-UCLA Medical Center for symptomatic fibroids (n=10). Prior approval was secured from the Institutional Review Board (18CR-31752-01 R) at the Lundquist Institute. Tissues were exclusively sourced from premenopausal patients who had not been treated with hormonal medications for at least 3 months before surgery. The fibroids used in this study were sourced from African American (n=2) and Hispanic (n=8) women aged between 35-50 years (mean 43±4.8 years). The MED12 mutation status of all fibroids was determined by PCR amplification and Sanger sequencing (Laragen Inc., Culver City, CA, USA). […] Informed consent was obtained from all participants. A segment of each tumor was allocated for in vivo studies, and the remaining tissues were promptly snap-frozen and stored in liquid nitrogen for further analysis as previously described. This selection process for tumors was aimed at minimizing variance among fibroids.
Background: Xenograft models place foreign cells or tissue in a host animal.

Assay [2] relates to fibroid xenografts. Kind of assay: Immunohistochemistry and Masson's trichrome staining of xenografts (Example 1). The class given is in vivo, SCID/Beige mice. How it is done:
Tissues were fixed in 4% paraformaldehyde and subsequently embedded in paraffin, and 5-micron sections were cut and mounted onto glass slides. Staining procedures, including Masson's trichrome stain (HT15-1 KT, Sigma-Aldrich), and immunohistochemistry, were conducted as previously described. Primary antibodies utilized in this study included rabbit anti-Ki67 (dilution 1:250, 27309-1-AP, Proteintech Group, Inc, Rosemont, IL, USA), rabbit anti-cleaved caspase-3 (dilution 1:50, #9664, Cell Signaling Technology, Danvers, MA, USA), rabbit anti-CCND1 (dilution 1:50, #55506, Cell Signaling Technology), and mouse anti-E2F1 (dilution 1:50, sc-251, Santa Cruz Biotechnology, Inc., Dallas, TX, USA).

The subject of assay [3] is fibroid xenografts. Kind of assay: Xenograft mouse fibroid model, tumor weight (Example 2). Format: in vivo, ovariectomized CB-17 SCID/Beige mice. The note with it: 5 mg/kg i.p. (every other day / three times per week), two months, vs matched controls. From the text: Portions of uterine fibroids (intramural, 2-5 cm in diameters) (n=13) were obtained from patients at Harbor-UCLA Medical Center. Prior approval from the Institutional Review Board (18CR-31752-01 R) at the Lundquist Institute was obtained. Informed consent was obtained from all the patients participating in the study who were not taking any hormonal medications for at least 3 months prior to surgery. The fibroids used in this study were from African Americans (n=3), Hispanics (n=9) and Asians (n=1) women aged 35-57 years (mean 46±6.5 years). The MED12 mutation status of all fibroids was determined by PCR amplification and Sanger sequencing (Laragen Inc. Culver City, CA). […] The missense mutations in exon 2 included c.130G>A (p.Gly44Ser) (n=4), c.131 G>A (p.Gly44Asp) (n=2) and c.131 G>T (p.Gly44Val) (n=1). The tissues were snap frozen and stored in liquid nitrogen for further analysis as previously described (2, 3).
Portions of liver, kidney, heart were dissected and frozen.

For assay [4], the system named is fibroid xenografts. Kind of assay: RNA sequencing of fibroid xenografts (Example 1). Conditions: for number of downregulated transcripts (RNAseq) / number of upregulated transcripts (RNAseq): cutoff 1.5 fold, xenografts after two months, n=4 vs 4 vehicle. Format: in vivo, SCID/Beige mice.
In assay [5] the test system is fibroid xenografts. Nature of the assay: Immunoblotting of fibroid xenografts (Example 1). Format: in vivo, SCID/Beige mice. The note with it: 20 mg/kg daily, 8 weeks. From the text: Protein extracted from the xenografts underwent immunoblotting as previously described. Primary antibodies targeting COL3A1, FN1, SPARC, TDO2, and Cleaved Caspase 3 were purchased from Proteintech Group, Inc. (Chicago, IL, USA). Band densities of specific proteins were quantified using the Image J program (http://imagej.nih.gov/ij/), and normalized to a Ponceau S staining band on the membrane. Results were expressed as means±SEM, and are presented as ratios relative to the control group, designated as 1.
Background: A western blot detects proteins with antibodies after separation by electrophoresis.

Assay [6] concerns fibroid xenografts. Nature of the assay: Quantitative RT-PCR of fibroid xenografts (Example 1). Format: in vivo, SCID/Beige mice. The note with it: 20 mg/kg daily, 8 weeks. How it is done:
Quantitative RT-PCR was performed as previously described. Selected gene expression levels were assessed utilizing the Invitrogen StepOne System, with normalization against 18S. Triplicate reactions were conducted, and relative mRNA expression was calculated using the comparative cycle threshold method (2−ΔΔCt), with results presented as fold change relative to the control group. The primer sequences used are shown in the following Sequence Table: […]

[7] abbreviates: xenografts, 20 mg/kg daily, two months.

In the case of `Cc1ccc(S(=O)(=O)/C=C/C#N)cc1` [Bay 11-7082], the “reduction of tumor weight” value in assay [1] stood at 50%. Further, in assay [2] (20 mg/kg daily, 8 weeks), the “expression of cell cycle markers CCND1 and E2F1 (IHC)” value is reported as “decreased expression”; the “expression of collagens (Masson's trichrome staining)” value is reported as “significant decrease”; the “expression of proliferation marker Ki67 (IHC)” value is given as “significant reduction”; the “smooth muscle content (Masson's trichrome staining)” value was “no significant differences”. For the same molecule, the “Cleaved caspase 3 staining (IHC)” value in assay [2] (drug versus vehicle) was “no significant difference”. For the same molecule, the “reduction in tumor weight” value in assay [3] amounted to 40%. Further, in assay [4], the “number of downregulated transcripts (RNAseq)” value was found to be 629 and the “number of upregulated transcripts (RNAseq)” value is 374. Besides, in assay [4] (listed as Bay), the “number of downregulated transcripts (RNAseq)” value is 374 and the “number of upregulated transcripts (RNAseq)” value is listed as 629. Also, in assay [4] (setting [7]), the “RNAseq: expression of TDO2 and serotonin receptor HTR1B” value is given as “significantly inhibited”; the “RNAseq: expression of growth factors (IGF1, EGF, PDGF, FGF8, PRL, TGFB3) and ECM components (COL3A1, KRT10)” value is “decrease”; the “RNAseq: genes of cell proliferation, mitosis, mitotic apparatus, cytokinesis (Ki67, E2F1, CCND1, CCNB1, CCNA2, BUB1, CKS2 and others)” value was “downregulated”; the “RNAseq: pro-inflammatory cytokines (IL1a, IL1b, TNF, IL6, IL15, IL7R, TNFRSF11A), TLR3, TLR6, chemokines (CXCCR4, CCR5, CCL3, CCL5)” value was “downregulation”. Besides, in assay [4] (xenografts, two months, significant variation among animals), the “RNAseq: vWF, ICAM1, ITGAX, SOX2, CXCL8, IL10, IL13” value is given as “up-regulated”. Moreover, in assay [5], the “protein abundance of COL3A1, FN1, SPARC, TDO2 (Western blot)” value was “inhibited”. In addition, in assay [6], the “expression of miR-29c and miR-200c” value is reported as “significant increase”. In addition, the “mRNA expression of SPARC, TDO2, MYD88, TLR6, TLR3, IL6, TNFα, TNFRSF11A, IL1β, COL3A1, FN1, LOX, TGFB3, CCND1, E2F1, CKS2, PRL, ESR1, PGR, VEGFC, PDGFA, HTR1B” value in assay [6] (n=10) was “significant decrease”.
